Measured values: article PMC6290556, “1,4-Disubstituted Thiosemicarbazide Derivatives are Potent Inhibitors of Toxoplasma gondii Proliferation” (Molecules, 2014)
Converted amounts (≈) assume the structure as drawn. One block for each compound: values may come before it.

Columns and labels:
[1] = solubility under the anti-T. gondii protocol conditions; format: physicochemical; details: anti-T. gondii assay protocol, 1 to 100 µg/mL
Procedure: In the next step of our studies, the prepared 1,4-disubstituted thiosemicarbazides (series 1–3) were used to assess the inhibition of T. gondii growth in vitro. For this purpose, intracellular parasites (tachyzoites) of RH strain were incubated with different concentrations of the thiosemicarbazides ranging from 1 to 100 µg/mL. Inhibition of the parasite growth was monitored by measuring the specific incorporation of [^3H]uracil in the parasite’s nucleic acids. Unfortunately, among the 15 compounds tested, derivatives 1a–1e, 1k, 1l, 2f, 2i, 2j, and 3h were insoluble under the protocol conditions and, consequently, they were eliminated from further experiments. The percentages of the parasite growth inhibition in L929 cells by the remaining compounds 1g, 2b, 3d, 3l and the control drug-sulfadiazine as well as IC50 values are shown in Table 1.
A preliminary assumption was thus put forward that the presence of both the five-membered hetaryl moiety at N1 position and the aryl moiety at N4 position of thiosemicarbazide core are the key functionalities required for potent anti-T. gondii activity of thiosemicarbazide-based compounds, which may be directly linked with the electronic structure of the molecule. In order to verify the preliminary hypothesis, 4-ethyl-1-(thiophen-2-yl)carbonylthiosemicarbazide (1m), 4-cyclohexyl-1-(thiophen-2-yl)carbonylthiosemicarbazide (1n), and 4-ethyl-1-(2-methylfuran-3-yl)carbonylthio-semicarbazide (2m) were synthesized and their bioactivity was tested. Unfortunately, derivatives 1m and 1n were insoluble under the protocol conditions and, consequently, they were eliminated from further experiments. […] The assumption of the existence of the relationship between the anti-T. gondii activity of the studied thiosemicarbazides and their molecular structure was also confirmed based on DFT calculations. Figure 3 illustrates the electrostatic potential mapped on the density surface using the Gaussview program. Neutral fragments are characterized by the green color of the surface. The negative charge is represented by red, while the positive charge is marked in blue. If compound 1g is excluded from the consideration, the biological activity correlates well with the dipole moment of the molecule. In this series it seems that the activity depends on the bimodal partial negative charge developed on the carbonyl oxygen and another moiety on the same side of the molecule (a sulfur atom in 2b and 3d). Its low value in 3l and lack in 2m may be responsible for the lower activity. […] It contains, however, two partial negative charge centers as the series discussed above and an additional such center on the fluorine atom. Comparison of the biological activity of 1g and 2m seems to indicate the crucial role of the second negative charge density on the top of the molecule on a moiety other than the carbonyl oxygen. Another observation that comes from the analysis of the presented structures is that the biological activity is pronounced when the methyl group of the five-membered ring is directed away from the carbonyl group.

[2] = test system: T. gondii RH strain tachyzoites; assay: [3H]uracil incorporation assay of T. gondii proliferation in L929 host cells; format: cell-based, Toxoplasma gondii; details: assay A [3H]uracil incorporation; for intensity of T. gondii proliferation: vs untreated blank
Procedure: In the next step of our studies, the prepared 1,4-disubstituted thiosemicarbazides (series 1–3) were used to assess the inhibition of T. gondii growth in vitro. For this purpose, intracellular parasites (tachyzoites) of RH strain were incubated with different concentrations of the thiosemicarbazides ranging from 1 to 100 µg/mL. Inhibition of the parasite growth was monitored by measuring the specific incorporation of [^3H]uracil in the parasite’s nucleic acids.
The tachyzoites of T. gondii strain RH – intraspecies type I (ATCC_ Number 50174™) were maintained through passages on female C57BL/6 (H-2^b) and BALB/c (H-2^d) mice with genetically determined high and low susceptibility (respectively) to T. gondii infection (10–12 weeks old). Tachyzoites washed out from the peritoneum cavity were once expanded in vitro on L929 cells.
L929, (2 × 10^4 cells/100 µL/well) were grown in complete medium (IMDM) on 96-well plates. After 24 h incubation, a medium was removed and then T. gondii RH tachyzoites, suspended in culture medium supplemented with 1.0, 5.0, 10.0, 50.0 and 100.0 μg/mL 1,4-disubstituted thiosemicarbazides (1g, 2b, 2m, 3d, 3l) and as a control-sulfadiazine, were added (2 × 10^5 tachyzoites/200 µL/well) to the cell monolayers. After subsequent 48 h incubation 1 µCi/well of [^3H] uracil (Moravek Biochemicals Inc., Brea, CA, USA) was applied to each microculture for further 18–20 h. The amount of the isotope incorporated into the parasite nucleic acid pool, corresponding to the parasite growth, was measured by liquid scintillation counting with 1450 Microbeta Plus Liquid Scintillation Counter (Wallac Oy, Turku, Finland).

[3] = test system: T. gondii RH strain; assay: quantitative real-time PCR (B1 gene) of T. gondii in infected L929 cells; format: cell-based, Toxoplasma gondii; details: assay B qRT-PCR, L929 host cells
Procedure: T. gondii genomic DNA was isolated from the tachyzoites of RH strain with Wizard® SV Genomic DNA Purification System (Promega, Madison, WI, USA) according to the manufacturer’s instruction. The DNA concentration and purity were measured using a NanoPhotometer (Implen, München, Germany), while the integrity of the extracted DNA was tested using an ethidium bromide-stained agarose gel. DNA was used for the detection and quantitationof T. gondii in analyzed samples and it was stored at −20 °C until use.
A quantitative real-time PCR (qRT-PCR) assay, targeting B1 gene was performed to detect and to quantitate T. gondii in analyzed samples (1g, 2b, 2m, 3d, 3l and sulphadiazine) according to the modified protocol of Wahab et al.. […] Amplification was carried out on a 7900HT real-time PCR system (Applied Biosystems, Carlsbad, CA, USA). The reaction mixtures (25 µL) consisted of 1x TaqMan PCR master mix supplemented with ROX (Applied Biosystems), 300 nM probe, 900 nM of each primer and 2 µL of template DNA. For quantification a standard curve was constructed using 10-fold serial dilutions of DNA extracted from a known number of T. gondii. The cycling parameters were: 50 °C for 2 min, initial activation at 95 °C for 10 min, and 45 two-step cycles of 95 °C for 15 s and 60 °C for 1 min. All samples were analyzed in triplicate.

[4] = MTT cell viability assay (ISO 10993-5); format: cell-based, mouse; details: mouse, L929 mouse fibroblast cells, 24 h, ± SD
Procedure: (§1) Cell line L929 (ATTC® Catalog No. […] The MTT assay was used according to international standards: ISO 10993-5:2009(E), Biological evaluation of medical devices, Part 5: Tests for in vitro cytotoxicity. […] Then, 1 mg/mL MTT (50 μL/well) was added to each well and incubated at 37 °C, 10% CO2 for 2 h. Mitochondrial dehydrogenases of viable cells reduced the yellowish water-soluble MTT to water-insoluble formazan crystals, which were solubilized with dimethyl sulfoxide (DMSO). The cell culture medium was aspirated cautiously, after which 150 μL DMSO was added to each well and mixed thoroughly. Optical density (OD) was read on the ELISA reader (Multiskan EX, Labsystems, Vienna, VA, USA) at 550 nm. […] All experiments were performed in triplicate.

[5] = test system: L929 cells; assay: MTT cell viability assay (ISO 10993-5); format: cell-based, mouse; details: for CC30 (concentration required for 30% proliferation inhibition in vitro): L929 cells; for viability of L929 cells: 24 h, ± SD
Procedure: as §1

[6] = test system: Gram-positive and Gram-negative bacterial strains; assay: antibacterial assay (disc diffusion / agar dilution); format: cell-based; details: even at high concentrations
Description: The following microorganisms were used in this study: Staphylococcus aureus (ATCC 25923, ATCC 6538, ATCC 29213, NCTC 4163), Staphylococcus epidermidis ATCC 12228, Bacillus subtilis ATCC 6633, Bacillus cereus ATCC 11778, Micrococcus luteus (ATCC 9341, ATCC 10240), Escherichia coli (ATCC 10538, ATCC 25922, NCTC 8196), […] NCTC 4635, Pseudomonas aeruginosa (ATCC 15442, ATCC 27853, NCTC 6749), and Bordetella bronchiseptica ATCC 4617. Initially, antibacterial activity of thiosemicarbazide derivatives was screened on the basis of growth inhibition zone (giz) utilizing the disc diffusion method, according to the Clinical and Laboratory Standards Institute guidelines. For compounds showing the inhibitory effect on the growth of tested bacteria, monitored as an appearance of giz, the minimal inhibitory concentrations (MICs) were determined using agar dilution method, according to the Clinical and Laboratory Standards Institute guidelines. The minimal inhibitory concentrations (MICs) were defined as the lowest concentration of the compound preventing growth of the tested microorganism. In both methods, recommended Mueller-Hinton II agar medium (Becton Dickinson, Heidelberg, Germany) was used. Solutions containing the tested agents were prepared in methanol or DMSO. Ciprofloxacin was used as control antimicrobial agent.

[7] = test system: T. gondii RH strain tachyzoites; assay: [3H]uracil incorporation assay of T. gondii proliferation in L929 host cells; format: cell-based; details: Toxoplasma gondii, L929, read-out: IC50 (50% of T. gondii proliferation inhibition in vitro)

Compound: O=C(NNC(=S)Nc1ccc(F)cc1F)c1cccs1 [Compound 1l]
solubility under the protocol conditions [1]: insoluble

Compound: Cc1ccccc1NC(=S)NNC(=O)c1ccoc1C [Compound 2b]
intensity of T. gondii proliferation ([2]; 1 µg/mL): 98.24 ± 23.83%
intensity of T. gondii proliferation ([2]; 5 µg/mL): 107.95 ± 24.88%
intensity of T. gondii proliferation ([2]; 10 µg/mL): 112.25 ± 22.91 %
intensity of T. gondii proliferation ([2]; 50 µg/mL): 58.78 ± 11.49 %
intensity of T. gondii proliferation ([2]; 100 µg/mL): 8.10 ± 2.78 %
intensity of T. gondii proliferation ([3]; 50 µg/mL): 41.37 ± 9.98 %
intensity of T. gondii proliferation ([3]; 100 µg/mL): 7.29 ± 1.56 %
viability at 24 h, 1 µg/mL ([4]; 1 µg/mL): 95.3 ± 9.52%
viability at 24 h, 5 µg/mL ([4]; 5 µg/mL): 94 ± 1.78%
viability at 24 h, 10 µg/mL ([4]; 10 µg/mL): 91.9 ± 5.21%
viability at 24 h, 50 µg/mL ([4]; 50 µg/mL): 84.5 ± 1.43%
viability at 24 h, 100 µg/mL ([4]; 100 µg/mL): 78.2 ± 1.61%
viability at 24 h, 500 µg/mL ([4]; 500 µg/mL): 30.3 ± 0.86%
CC30 (concentration required for 30% proliferation inhibition in vitro) [5]: 187.51 µg/mL
growth-inhibiting effect on bacterial strains [6]: no growth-inhibiting effect
IC50 [7]: 59 µg/mL (≈ 204 µM)

Compound: Cc1ccccc1NC(=S)NNC(=O)c1cccs1 [Compound 1b, 4-(2-Methylphenyl)-1-(thiophen-2-yl)carbonylthiosemicarbazide]
melting point: 155 to 157 °C

Compound: O=C(NNC(=S)NC1CCCCC1)c1cccs1 [Compound 1n, 4-cyclohexyl-1-(thiophen-2-yl)carbonylthiosemicarbazide]
solubility under the protocol conditions [1]: insoluble

Compound: 4-ethyl-1-(2-methylfuran-3-yl)carbonylthio-semicarbazide [Compound 2m]
intensity of T. gondii proliferation ([2]; 1 µg/mL): 98.00 ± 19.53%
intensity of T. gondii proliferation ([2]; 5 µg/mL): 75.74 ± 14.62%
intensity of T. gondii proliferation ([2]; 10 µg/mL): 60.61 ± 9.56 %
intensity of T. gondii proliferation ([2]; 50 µg/mL): 66.49 ± 11.38 %
intensity of T. gondii proliferation ([2]; 100 µg/mL): 57.59 ± 15.02 %
IC50 (50% of T. gondii proliferation inhibition in vitro) [2]: 191.04 µg/mL
intensity of T. gondii proliferation ([3]; 50 µg/mL): 51.03 ± 7.02 %
intensity of T. gondii proliferation ([3]; 100 µg/mL): 53.03 ± 9.87 %
viability of L929 cells ([5]; 1 µg/mL): 104.05 ± 0.12%
viability of L929 cells ([5]; 5 µg/mL): 94.44 ± 2.62%
viability of L929 cells ([5]; 10 µg/mL): 94.05 ± 5.13%
viability of L929 cells ([5]; 50 µg/mL): 90.49 ± 2.99 %
viability of L929 cells ([5]; 100 µg/mL): 92.17 ± 2.31 %
viability of L929 cells ([5]; 500 µg/mL): 80.40 ± 2.74 %
CC30 (concentration required for 30% proliferation inhibition in vitro) [5]: >500 µg/mL
growth-inhibiting effect on bacterial strains [6]: no growth-inhibiting effect

Compound: Cc1cccc(NC(=S)NNC(=O)c2cccs2)c1 [Compound 1e, 4-(3-Methylphenyl)-1-(thiophen-2-yl)carbonylthiosemicarbazide]
melting point: 188 to 190 °C

Compound: CCN=C(S)NNC(=O)c1cccs1 [Compound 1m, 4-ethyl-1-(thiophen-2-yl)carbonylthiosemicarbazide]
solubility under the protocol conditions [1]: insoluble

Compound: O=C(NNC(=S)Nc1ccc([N+](=O)[O-])cc1)c1cccs1 [Compound 1k]
solubility under the protocol conditions [1]: insoluble

The remaining lines, values ahead:

solubility under the protocol conditions [1]: insoluble
Compound: Cc1nnsc1C(=O)NNC(=S)Nc1ccc(Cl)cc1 [Compound 3h]

solubility under the protocol conditions [1]: insoluble
Compound: Cc1occc1C(=O)NNC(=S)Nc1ccc(I)cc1 [Compound 2j]

solubility under the protocol conditions [1]: insoluble
Compound: Cc1ccc(NC(=S)NNC(=O)c2ccoc2C)cc1 [Compound 2f]

solubility under the protocol conditions [1]: insoluble
Compound: Cc1occc1C(=O)NNC(=S)Nc1ccc(Br)cc1 [Compound 2i]
